Data reported in US5298511A, “Alkanoic acid derivatives” (Imperial Chemical Industries PLC, priority 1991, dated 1994).

Biological target: T1, 5-LO (Homo sapiens, UniProt P09917)
T1 construct: incubating a test compound with heparinised human blood, prior to challenge with the calcium ionophore A23187; endogenous in cells; host or cells: blood cells in heparinised human whole blood, challenged with A23187
T1 sequence (P09917 1-674): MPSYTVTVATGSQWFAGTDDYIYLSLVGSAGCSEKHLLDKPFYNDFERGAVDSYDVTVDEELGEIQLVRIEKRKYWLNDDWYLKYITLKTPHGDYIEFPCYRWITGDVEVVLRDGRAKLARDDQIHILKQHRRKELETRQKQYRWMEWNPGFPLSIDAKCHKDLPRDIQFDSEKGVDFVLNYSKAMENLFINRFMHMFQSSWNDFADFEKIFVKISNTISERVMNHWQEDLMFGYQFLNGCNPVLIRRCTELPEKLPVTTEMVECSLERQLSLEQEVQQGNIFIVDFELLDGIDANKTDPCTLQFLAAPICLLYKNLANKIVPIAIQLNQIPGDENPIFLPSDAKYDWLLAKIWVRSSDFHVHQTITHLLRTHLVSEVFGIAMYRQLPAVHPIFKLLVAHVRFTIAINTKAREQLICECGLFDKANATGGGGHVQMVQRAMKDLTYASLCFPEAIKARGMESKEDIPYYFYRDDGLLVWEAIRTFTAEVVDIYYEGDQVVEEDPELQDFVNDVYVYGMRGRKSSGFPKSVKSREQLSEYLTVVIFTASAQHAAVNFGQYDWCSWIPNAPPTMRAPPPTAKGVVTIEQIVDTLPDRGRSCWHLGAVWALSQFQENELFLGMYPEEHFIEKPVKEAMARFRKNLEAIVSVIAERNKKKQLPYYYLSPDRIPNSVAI
Experiment: test a) in vitro heparinised human blood challenged with calcium ionophore A23187; LTB4 by radioimmunoassay
Format: cell-based
Procedure: a) An in vitro assay system involving incubating a test compound with heparinised human blood, prior to challenge with the calcium ionophore A23187 and then indirectly measuring the inhibitory effects on 5-LO by assaying the amount of LTB4 using specific radioimmunoassays described by Carey and Forder (F. Carey and R. A. Forder, Prostaglandins, Leukotrienes Med., 1986, 22, 57; Prostaglandins, 1984, 28, 666; Brit. J. Pharmacol. 1985, 84, 34 P) which involve the use of a protein-LTB4 conjugate produced using the procedure of Young et alia (Prostaglandins, 1983, 26(4), 605-613). The effects of a test compound on the enzyme cyclooxygenase (which is involved in the alternative metabolic pathway for arachidonic acid and gives rise to prostaglandins, thromboxanes and related metabolites) may be measured at the same time using the specific radioimmunoassay for thromboxane B2 (TxB2) described by Carey and Forder (see above). This test provides an indication of the effects of a test compound against 5-LO and also cyclooxygenase in the presence of blood cells and proteins. It permits the selectivity of the inhibitory effect on 5-LO or cyclooxygenase to be assessed.

IC50: 200 nM
SMILES: CCOC(=O)C(CC)(CC)c1cccc(OCc2ccc3ccccc3c2)c1 [Example 1, ethyl 2-ethyl-2-[3-(naphth-2-ylmethoxy)phenyl]butyrate]
